Data taken from patent publication US5480885A, “Ergoline derivatives of 1-propinylamine, a process for the manufacture thereof and the use thereof for medicaments” (priority 1991, dated 1996).
Entries after “also recorded” stand apart in the source; their conditions may differ. Read-outs that look alike come from different tables or passages of the source.

Tests used:
5-HT1A receptors [1] = assay: inhibition of 8-OH-DPAT-caused spontaneous tail-flick in rats; type: in vivo, rat; conditions: in words
[2] = molecular target: T1, 5-HT1A serotoninergic receptor (Homo sapiens, UniProt P08908); assay: functional test, 5-HT1A serotoninergic receptor; conditions: in words
T1 sequence (P08908 1-422): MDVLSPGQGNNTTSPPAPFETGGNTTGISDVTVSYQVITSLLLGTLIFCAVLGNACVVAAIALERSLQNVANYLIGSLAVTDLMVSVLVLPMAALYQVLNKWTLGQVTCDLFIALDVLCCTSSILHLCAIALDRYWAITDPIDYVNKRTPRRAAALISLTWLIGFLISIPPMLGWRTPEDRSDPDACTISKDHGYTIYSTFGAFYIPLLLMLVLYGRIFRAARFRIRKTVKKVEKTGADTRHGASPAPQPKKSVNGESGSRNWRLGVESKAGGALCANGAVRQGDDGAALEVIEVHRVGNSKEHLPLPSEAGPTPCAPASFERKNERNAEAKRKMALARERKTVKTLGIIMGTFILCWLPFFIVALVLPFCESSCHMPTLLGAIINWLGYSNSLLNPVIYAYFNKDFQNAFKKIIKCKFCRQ

[3] = molecular target: T1, 5-HT1A serotoninergic receptor; assay: binding at [^3 H] 8-OH-DPAT binding site; conditions: for affinity to 5-HT1A receptor: [^3 H] 8-OH-DPAT, in words
Description: (§1) Binding affinities of the compounds of Examples 1

pupil = assay: dilatation of the pupil in mice (Pulewka); type: in vivo; conditions: 5 mg/kg i.p.; in words
[4] = system: pentobarbital-anesthetized normotensive rats; assay: blood pressure and heart rate in pentobarbital-anesthetized normotensive rats; type: in vivo, rat; conditions: 450 μg/kg i.v.; for maximum reduction in carotid artery pressure / reduction in heart rate: vs initial level
sigma receptor [5] = assay: binding at [^3 H] DTG binding site; conditions: in words
[6] = molecular target: T2, isolated rabbit thoracic aorta (serotonin) (Oryctolagus cuniculus, UniProt G1SYA7); conditions: for mode of inhibition of serotonin constriction: in words
T2 construct: isolated rabbit thoracic aorta; from tissue; host or cells: isolated rabbit thoracic aorta

[7] = system: isolated rat uterus (serotonin); assay: inhibition of serotonin-induced contractions of the isolated rat uterus; conditions: serotonin-induced contractions (serotonin 2.47×10^-8 M where printed)
D2 receptor = D2 receptor (Homo sapiens, UniProt P14416); assay: binding, [^3 H]Raclopride; conditions: for Ki: D2, [^3 H]Raclopride; for affinity for D2 receptors: in words
Description: as §1

sigma receptor [8] = assay: functional test, sigma receptor; conditions: in words
5-HT2 receptors = molecular target: T3, 5-HT2 receptors (Mus musculus, UniProt P35363); assay: inhibition of the head twitch response after 5-HTP/carbidopa; type: in vivo, mice; conditions: ip, mice, 5-hydroxytryptophan/carbidopa, read-out: ID50, inhibition of head twitch response
T3 construct: The head twitch model in mice; from tissue; host or cells: living mice (central nervous system)
Procedure: The substance was injected 15 minutes prior to DL-5-HTP. The head twitch was recorded from 30 to 35 minutes after the DL-5-HTP injection (modified method according to Handley and Singh, Br. J. Pharmacol. 86, 297 (1985)).
The compound was injected 15 minutes prior to L-5-HTP (modified method according to Handley and Singh, Br. J. Pharmacol. 86, 297 (1985)).
The head twitch model in mice represents an experimental model for determining the hallucinogenic action of a compound (the method was described by Handley and Singh, Br.J.Pharmacol., 86, 297-303, 1985). It is believed that the response is conveyed via the 5-HT2 receptors.

uterus in rats = assay: blocking of spontaneous uterus contractions in rats; conditions: Rattus norvegicus; 1000 ng/ml
Procedure: At a concentration of 1000 ng/ml it caused a 100% blocking of spontaneous uterus contractions in rats (see Jalon).

pithed rats = assay: vasoconstriction / diastolic pressure in pithed rats (Gillespie); type: in vivo, rat; conditions: vs control
5-HT2 receptor = 5-HT2 receptor (Homo sapiens, UniProt P28223); assay: biochemical; type: binding; conditions: for affinity for 5-HT2 receptors: in words
Description: as §1

5-HT1A receptors [9] = assay: spontaneous tail-flicks in rats; type: in vivo, rat; conditions: 0.08 to 0.63 mg/kg s.c. (Example 1); 5.0 mg/kg s.c. (Example 2); in words
D2 receptors [10] = molecular target: T4, D2 receptors (Mus musculus, UniProt P61168); assay: apomorphine-induced climbing in mice; type: in vivo; conditions: ip, -30 min., apomorphine 1.5 mg/kg s.c., read-out: ID50, climbing behavior
T4 construct: from tissue; host or cells: living mice (central nervous system)
Procedure: The application of apomorphine in a dose of 1.5 mg/kg s.c. caused a characteristic climbing behavior in mice.

M1 muscarinic receptor [11] = assay: binding at [^3 H] pirenzepine binding site; conditions: in words
acetylcholine receptors = assay: oxotremorine-induced tremor in mice; type: in vivo; conditions: 20 to 70 mg/kg i.p.; oxotremorine 1.5 mg/kg s.c.; in words
isolated rat uterus = assay: uterotonic activity (isolated rat uterus); conditions: in words
D2 receptors [12] = molecular target: T5, D2 receptors (Rattus norvegicus, UniProt P61169); assay: apomorphine-induced locomotion; type: in vivo; conditions: sc, -45 min., apomorphine 0.4 mg/kg s.c., rats, read-out: ID50, apomorphine-induced locomotion
T5 construct: from tissue; host or cells: living rats (central nervous system)

[13] = blood pressure and heart rate in pentobarbital-anesthetized normotensive rats; type: in vivo, rat; conditions: rat, in vivo, iv; normotensive rats, pentobarbital-induced anesthesia; read-out: ED50, decrease of the mean arterial blood pressure
rats = assay: catalepsy in rats; type: in vivo, rat; conditions: in words
Procedure: (§2) The s.c. application of the compounds of Example 5 (0.5 to 16 mg/kg) and of Example 8 (0.125 to 4 mg/kg), respectively, caused catalepsy in rats (the method was described by Morelli and Chiara, Europ. J. Pharmacol. 117, 179-185, 1985).

catalepsy in rats = type: in vivo, rat; conditions: rat, in vivo, sc; rats
Procedure: as §2

[14] = system: urethane-anestetized normotensive rats; assay: adrenaline-induced vasopressoric response in urethane-anesthetized normotensive rats; type: in vivo, rat; conditions: 450 μg/kg i.v.; adrenaline 10 μg/kg i.v.
Procedure: In urethane-anestetized normotensive rats the compound (450 μg/kg, i.v.) intensified the adrenaline (10 μg/kg, i.v.)-induced vasopressoric response.

D1 receptor = D1 receptor (Homo sapiens, UniProt P21728); assay: binding, [^3 H]SCH23390
Description: (§3) Binding affinities of the compounds of Examples 5

[15] = system: isolated rabbit thoracic aorta (noradrenaline); assay: inhibition of the constrictive activity of noradrenaline on the isolated rabbit thoracic aorta
α1 receptors = assay: noradrenaline-induced lethality in rats; type: in vivo, rat; conditions: s.c.
[16] = prolongation of pentobarbital-induced anesthesia in mice; conditions: mouse, in vivo, ip
[17] = overall antipsychotic action and side-effect profile (summary statements); type: in vivo; conditions: in words
α1 receptor = assay: binding, [^3 H]Prazosin
Description: as §3

M1 muscarinic receptor [18] = assay: functional test, M1 muscarinic receptor; conditions: in words
[19] = system: isolated rabbit vena cava inferior; assay: venous constriction on the isolated rabbit vena cava inferior; conditions: 1×10^-7 M; in words
[20] = system: isolated rabbit vena cava (noradrenaline); assay: inhibition of noradrenaline venous constriction on the isolated rabbit vena cava; conditions: vs noradrenaline
mice = assay: spontaneous motor activity in mice; type: in vivo; conditions: two models (motor activity and pentobarbital anesthesia); vs haloperidol; in words
[21] = spontaneous motor activity in mice; type: in vivo; conditions: mouse, in vivo, ip; mice; read-out: ID50, inhibition of spontaneous motor activity

Sequence of 5-HT2 receptor (P28223 whole entry): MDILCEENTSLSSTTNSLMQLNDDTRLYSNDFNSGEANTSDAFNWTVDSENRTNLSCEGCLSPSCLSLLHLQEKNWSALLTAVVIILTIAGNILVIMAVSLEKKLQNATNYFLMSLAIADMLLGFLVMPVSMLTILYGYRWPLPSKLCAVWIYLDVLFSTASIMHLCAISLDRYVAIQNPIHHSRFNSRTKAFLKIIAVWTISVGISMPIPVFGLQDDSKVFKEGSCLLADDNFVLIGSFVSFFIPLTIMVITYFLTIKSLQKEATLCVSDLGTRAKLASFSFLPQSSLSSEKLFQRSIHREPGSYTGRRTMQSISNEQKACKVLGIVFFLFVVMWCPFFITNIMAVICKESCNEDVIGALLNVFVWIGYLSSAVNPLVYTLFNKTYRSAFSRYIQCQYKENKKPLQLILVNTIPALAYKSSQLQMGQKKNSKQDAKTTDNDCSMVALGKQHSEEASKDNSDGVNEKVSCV
T2 sequence (G1SYA7 entry or part of it): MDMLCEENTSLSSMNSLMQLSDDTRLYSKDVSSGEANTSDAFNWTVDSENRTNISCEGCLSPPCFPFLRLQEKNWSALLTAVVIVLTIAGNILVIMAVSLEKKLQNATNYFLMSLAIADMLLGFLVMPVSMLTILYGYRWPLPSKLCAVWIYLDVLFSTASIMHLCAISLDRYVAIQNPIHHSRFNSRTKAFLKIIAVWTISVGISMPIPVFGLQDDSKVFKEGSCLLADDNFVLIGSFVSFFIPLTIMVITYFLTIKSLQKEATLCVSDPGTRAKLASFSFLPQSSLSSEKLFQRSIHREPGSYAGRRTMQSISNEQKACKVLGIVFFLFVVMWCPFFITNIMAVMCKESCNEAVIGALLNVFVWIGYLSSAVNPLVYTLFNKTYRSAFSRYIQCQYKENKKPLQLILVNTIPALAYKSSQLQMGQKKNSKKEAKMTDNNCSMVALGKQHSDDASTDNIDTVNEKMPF
Sequence of D2 receptor (P14416 whole entry): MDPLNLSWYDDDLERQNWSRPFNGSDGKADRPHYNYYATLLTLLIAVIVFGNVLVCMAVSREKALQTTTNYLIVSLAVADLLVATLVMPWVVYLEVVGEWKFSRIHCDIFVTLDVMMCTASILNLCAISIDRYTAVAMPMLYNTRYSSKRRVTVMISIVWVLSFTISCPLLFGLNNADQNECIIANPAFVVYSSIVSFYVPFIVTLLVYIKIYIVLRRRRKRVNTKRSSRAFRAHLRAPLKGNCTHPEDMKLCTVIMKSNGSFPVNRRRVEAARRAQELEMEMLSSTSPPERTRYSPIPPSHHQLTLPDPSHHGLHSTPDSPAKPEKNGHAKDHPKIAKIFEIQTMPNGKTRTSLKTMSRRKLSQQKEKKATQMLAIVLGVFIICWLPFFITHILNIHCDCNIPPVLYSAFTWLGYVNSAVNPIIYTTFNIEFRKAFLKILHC
Sequence of D1 receptor (P21728 whole entry): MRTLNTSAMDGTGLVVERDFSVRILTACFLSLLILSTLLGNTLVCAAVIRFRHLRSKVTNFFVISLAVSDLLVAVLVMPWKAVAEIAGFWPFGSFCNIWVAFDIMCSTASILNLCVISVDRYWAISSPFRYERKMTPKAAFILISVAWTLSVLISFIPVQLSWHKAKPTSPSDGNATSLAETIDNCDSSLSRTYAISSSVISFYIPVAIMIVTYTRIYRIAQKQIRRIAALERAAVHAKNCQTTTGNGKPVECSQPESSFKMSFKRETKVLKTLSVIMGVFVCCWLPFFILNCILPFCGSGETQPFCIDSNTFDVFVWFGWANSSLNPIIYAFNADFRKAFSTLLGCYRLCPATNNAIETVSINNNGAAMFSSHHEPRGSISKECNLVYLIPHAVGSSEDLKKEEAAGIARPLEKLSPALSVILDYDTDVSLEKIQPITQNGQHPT
T3 sequence (P35363 whole entry): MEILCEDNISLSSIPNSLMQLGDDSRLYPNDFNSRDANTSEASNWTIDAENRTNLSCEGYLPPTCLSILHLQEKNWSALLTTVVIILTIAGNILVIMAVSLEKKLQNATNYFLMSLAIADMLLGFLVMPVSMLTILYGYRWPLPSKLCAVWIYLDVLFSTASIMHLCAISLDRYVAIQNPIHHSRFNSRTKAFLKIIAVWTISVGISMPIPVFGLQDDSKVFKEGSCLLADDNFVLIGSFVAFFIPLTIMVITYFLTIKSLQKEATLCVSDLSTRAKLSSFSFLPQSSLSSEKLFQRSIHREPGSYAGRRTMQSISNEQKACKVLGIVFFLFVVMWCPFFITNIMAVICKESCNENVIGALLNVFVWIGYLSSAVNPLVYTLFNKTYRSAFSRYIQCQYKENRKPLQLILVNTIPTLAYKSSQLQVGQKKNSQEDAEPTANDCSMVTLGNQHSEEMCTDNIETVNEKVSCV
T4 sequence (P61168 whole entry): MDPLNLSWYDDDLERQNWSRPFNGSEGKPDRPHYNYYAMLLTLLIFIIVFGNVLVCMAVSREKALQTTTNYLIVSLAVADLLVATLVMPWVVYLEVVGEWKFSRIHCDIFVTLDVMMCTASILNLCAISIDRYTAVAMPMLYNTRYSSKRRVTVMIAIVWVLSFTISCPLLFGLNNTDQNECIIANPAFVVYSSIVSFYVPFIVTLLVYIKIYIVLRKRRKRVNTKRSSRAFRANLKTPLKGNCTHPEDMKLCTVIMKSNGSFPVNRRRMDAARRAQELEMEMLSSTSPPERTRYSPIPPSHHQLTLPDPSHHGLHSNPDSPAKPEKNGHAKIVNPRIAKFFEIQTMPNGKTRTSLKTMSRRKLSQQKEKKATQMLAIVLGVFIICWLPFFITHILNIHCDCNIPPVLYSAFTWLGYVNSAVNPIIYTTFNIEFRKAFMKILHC
T5 sequence (P61169 whole entry): as the sequence (P61168 whole entry) above, with P29A counted along it

## C#CCNC(=O)[C@@H]1C=C2c3cccc4[nH]c(Br)c(c34)C[C@H]2N(C)C1 [Example 2, 2-Bromo-9,10-didehydro-N-(2'-propinyl)-6-methylergoline-8β-carboxamide]
5-HT1A receptors [1]; 0.63 to 5.0 mg/kg s.c., 8-OH-DPAT 2.5 mg/kg s.c.
  inhibition of 8-OH-DPAT-caused spontaneous tail-flick: strongly inhibit the spontaneous tail-flick in rats
5-HT1A receptors [1]
  effect in tail-flick inhibition model compared with buspirone: very similar to that of buspirone
[2]
  functional activity at 5-HT1A: did not indicate any activity
[3]; 5-HT1A, [^3 H]8-OH-DPAT
  Ki: 206 nM
[3]
  affinity to 5-HT1A receptor: somewhat lower affinity; also recorded: possessed affinity
pupil
  dilatation of the pupil: marked dilatation of the pupil
[4]
  duration of the transient effect: up to 20 minutes
  maximum reduction in carotid artery pressure: 15%
  reduction in heart rate: 5%
Sigma receptor [5]
  affinity to sigma receptor: possessed affinity
[6]
  mode of inhibition of serotonin constriction: competitively inhibited
[6]; vs serotonin, read-out: pA2 (converted)
  Kb: 7.41 nM
[7]
  IC50: 26.9 nM
D2 receptor
  Ki: 44 nM
  affinity for D2 receptors: high affinity
Sigma receptor [8]
  functional activity at sigma receptor: indicated an antagonistic activity
5-HT2 receptors
  ED50: 8.2 mg/kg
Uterus in rats
  inhibition at 1 µg/mL: 100%
Pithed rats; 450 μg/kg i.p.
  mean increase of the diastolic pressure: 20%
5-HT2 receptor; 5-HT2, [^3 H]Ketanserin, read-out: Ki
  Ki: 90 nM
5-HT2 receptor
  affinity for 5-HT2 receptors: high affinity
5-HT1A receptors [9]
  spontaneous tail-flick: did not cause a spontaneous tail-flick in rats

## C#CCN(C)C[C@@H]1C=C2c3cccc4[nH]cc(c34)C[C@H]2N(C)C1 [Example 8]
D2 receptors [10]
  ED50: 0.44 mg/kg
M1 muscarinic receptor [11]
  affinity to M1 muscarinic receptor: possessed affinity
Acetylcholine receptors
  inhibition of oxotremorine-induced tremor: dose-dependent inhibition
[2]
  functional activity at 5-HT1A: did not indicate any activity
Isolated rat uterus
  uterotonic activity: no uterotonic activity
[3]
  affinity to 5-HT1A receptor: possessed affinity
pupil
  dilatation of the pupil: strong dilatation of the pupil
D2 receptors [12]
  ED50: 0.089 mg/kg
[4]; in words
  effect on carotid artery pressure: strong and sustained decrease in carotid artery pressure
[4]
  maximum reduction in carotid artery pressure: 20%
  reduction in heart rate: less than 20%
[13]
  ED50: 0.37 mg/kg
Sigma receptor [5]
  affinity to sigma receptor: possessed affinity
[6]
  Kb: 0.741 nM
  mode of inhibition of serotonin constriction: competitively inhibited
[7]
  IC50: 1.85 nM
rats
  cataleptic action compared with haloperidole: lesser than the action caused by the typical antipsychotic haloperidole
Catalepsy in rats
  ED50: 0.29 mg/kg
[14]
  effect on adrenaline-induced vasopressoric response: intensified
D2 receptor
  Ki: 3.8 nM
  affinity for D2 receptors: high affinity
Sigma receptor [8]
  functional activity at sigma receptor: indicated an antagonistic activity
D1 receptor; D1, [^3 H]SCH23390
  Ki: 87 nM
D1 receptor; in words
  affinity for D1 receptors: lower
[15]; in words
  mode of inhibition of noradrenaline constriction: competitively inhibited
[15]; vs noradrenaline
  pA2: 6.39
α1 receptors
  ID50, noradrenaline-induced lethality: 3.75 mg/kg
[16]
  ED50: 17.1 mg/kg
[17]
  antipsychotic action: strongest antipsychotic action
  side effect liability: lesser degree of probability of the development of extrapyramidal, central depressant and hypotensive side effects
α1 receptor; in words
  affinity for α1 receptors: lower
α1 receptor; α1, [^3 H]Prazosin
  Ki: 245 nM
M1 muscarinic receptor [18]
  functional activity at M1 muscarinic receptor: indicated an antagonistic activity
Pithed rats; 450 μg/kg i.v.
  mean increase in diastolic pressure: 20%
5-HT2 receptor
  Ki: 10 nM
  affinity for 5-HT2 receptors: high affinity
[19]
  venous constriction: minimal venous constriction
[20]
  pA2: 6.63
mice
  depressant action on the level of CNS: several times lower depressant action on the level of CNS if compared with haloperidol
[21]
  ED50: 8.4 mg/kg
